According to patent publication US20220267352A1, “RAPAMYCIN ANALOGS AND USES THEREOF” (Anakuria Therapeutics, Inc., priority 2021, published 2022):

Experiments:
Format in all cases: cell-based
[1] = test system: mTORC1 over mTORC2; experiment: mTORC1 over mTORC2 selectivity by comparing pS6K1 and pAKT IC50; conditions: by comparing pS6K1 and pAKT IC50, 90 min
Method: Assay Protocol: • 1. Seed MCF-7 cells in Corning 3701 plate and incubate for 20˜24 hour. 12,000˜16,000 cells will be seeded in 36 μL medium per well. • 2. Change the culture medium with fresh medium and incubate for another 2 hours. • 3. Add 12 μL (4×) compounds into the cell plate by HAMILTON. Final DMSO concentration is 0.5%. Incubate for 90 minutes. • 4. Aspirate 38 μL by HAMILTON, 10 μL rest per well. • 5. Add 10 μL 2× lysis buffer using HAMILTON; total volume in wells is 20 μL. Allow cells to shake for 30 min. Cover plate by plastic foil and store plate at −80° C. up to analysis. • 6. Thaw cell lysate at RT and transfer 10 μL lysate to assay plate (Optiplate-384). • 7. Add 5 μL acceptor beads into assay plate and incubation for 2 hours • 8. Add 5 μL donor beads and incubation for 2 hours • 9. Count the plate by EnSpire Multimode Plate Reader […]
Compounds that are not selective by comparing pS6K1 and pAKT IC50 by kinase assays are indicated by “NO” in the “mTORC1 selective @ 90 min” column of Table 4. […] Compounds that are not selective at the 24 hrs mark are indicated by “NO” in the “mTORC1 selective @ 24 hrs” column of Table 4. “N/A” stands for “not assayed” and “N/C” stands for “not calculated”.

[2] = test system: p-Akt 1/2/3 (Ser473) in MCF-7 cells; experiment: AlphaLISA Ultra pAKT assay; conditions: Homo sapiens, 1.5 h; MCF7 cells, 90 min
How it was run: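 MCF-7 cells (16,000˜20,000 per well in 36 μL medium) were seeded in Corning 3701 plates for 20˜24 hour, refreshed with new medium for 90 minutes, then given 12 μL of 4× compound (0.5% final DMSO). Cells were lysed with 2× lysis buffer, and lysate was analyzed by AlphaLISA Ultra pAKT using acceptor and donor beads, read on an EnSpire reader.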

[3] = test system: p-p70 S6 Kinase (Thr389) in MCF-7 cells; experiment: AlphaLISA Ultra pS6K1 assay; conditions: Homo sapiens, 1.5 h; MCF7 cells, 90 min
How it was run: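 MCF-7 cells seeded 20–24 h, given fresh medium 2 h, then treated with compounds 90 min (0.5% DMSO final). Cells lysed, lysates frozen at −80 °C, then Thr389-phosphorylated S6K1 detected by AlphaLISA Ultra with acceptor beads 2 h, then donor beads 2 h.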

Row | IC50 [2] [nM] | IC50 [3] [nM] | SMILES | mTORC1 selective @ 90 min [1]
1 | ≥ 1000 | ≥ 1000 | CO[C@@H]1/C(C)=C/[C@@H](C)C(=O)C[C@@H]([C@H](C)C[C@@H]2CC[C@@H](OP(C)(C)=O)[C@H](OC)C2)OC(=O)[C@@H]2CCCCN2C(=O)C(=O)[C@]2(O)O[C@@H](CC[C@H]2C)CC(OCCOC2COC2)/C(C)=C/C=C/C=C/[C@@H](C)C[C@@H](C)C(=O)[C@@H]1OC (stereo partly drawn) [I-75, (1R,2R,4S)-4-((2R)-2-((3S,6R,7E,9R,10R,12R,14S,15E,17E,19E,23S,26R,27R,34aS)-27-hydroxy-9,10-dimethoxy-6,8,12,14,20,26-hexamethyl-21-(2-(oxetan-3-yloxy)ethoxy)-1,5,11,28,29-pentaoxo-1,4,5,6,9,10,11,12,13,14,21,22,23,24,25,26,27,28,29,31,32,33,34,34a-tetracosahydro-3H-23,27-epoxypyrido[2,1-c][1]oxa[4]azacyclohentriacontin-3-yl)propyl)-2-methoxycyclohexyl dimethylphosphinate] | Yes
2 | ≥ 1000 | < 1 | COCCO[C@@H]1CC[C@@H](C[C@@H](C)[C@@H]2CC(=O)[C@H](C)/C=C(\C)[C@@H](O)[C@@H](OC)C(=O)[C@H](C)C[C@H](C)/C=C/C=C/C=C(\C)C(OC[C@@H]3COCCO3)C[C@@H]3CC[C@@H](C)[C@@](O)(O3)C(=O)C(=O)N3CCCC[C@H]3C(=O)O2)C[C@H]1OC (stereo partly drawn) [I-76, (1R,9S,12S,15R,16E,18R,19R,21R,23S,24E,26E,28E,32S,35R)-30-[[(2S)-1,4-dioxan-2-yl]methoxy]-1,18-dihydroxy-19-methoxy-12-[(1R)-2-[(1S,3R,4R)-3-methoxy-4-(2-methoxyethoxy)cyclohexyl]-1-methyl-ethyl]-15,17,21,23,29,35-hexamethyl-11,36-dioxa-4-azatricyclo[30.3.1.0^4,9]hexatriaconta-16,24,26,28-tetraene-2,3,10,14,20-pentone] | Yes
3 | ≥ 1000 | 10 to 100 | CO[C@@H]1C[C@H](C[C@@H](C)[C@@H]2CC(=O)[C@H](C)/C=C(\C)[C@@H](O)[C@@H](OC)C(=O)[C@H](C)C[C@H](C)/C=C/C=C/C=C(\C)[C@H](OCCOC3COC3)C[C@@H]3CC[C@@H](C)[C@@](O)(O3)C(=O)C(=O)N3CCCC[C@H]3C(=O)O2)CC[C@H]1OP(C)(C)=O [I-77, (1R,9S,12S,15R,16E,18R,19R,21R,23S,24E,26E,28E,30R,32S,35R)-12-[(1R)-2-[(1S,3R,4R)-4-dimethylphosphoryloxy-3-methoxy-cyclohexyl]-1-methyl-ethyl]-1,18-dihydroxy-19-methoxy-15,17,21,23,29,35-hexamethyl-30-[2-(oxetan-3-yloxy)ethoxy]-11,36-dioxa-4-azatricyclo[30.3.1.0^4,9]hexatriaconta-16,24,26,28-tetraene-2,3,10,14,20-pentone] | Yes

Further lines, the compound ahead of its results:

Row | SMILES | IC50 [2] [nM] | IC50 [3] [nM] | mTORC1 selective @ 90 min [1]
4 | COCCOCCO[C@@H]1C[C@@H]2CC[C@@H](C)[C@@](O)(O2)C(=O)C(=O)N2CCCC[C@H]2C(=O)O[C@H]([C@H](C)C[C@@H]2CC[C@@H](OCCO)[C@H](OC)C2)CC(=O)[C@H](C)/C=C(\C)[C@@H](OC)[C@@H](OC)C(=O)[C@H](C)C[C@H](C)/C=C/C=C/C=C/1C [I-36, (23E,25E,27E,28E,36R,37S,38R,39R,41S,43S,45R,46S,47R,48R,57R)-57-hydroxy-46-[(1R)-2-[(1S,3R,4R)-4-(2-hydroxyethoxy)-3-methoxy-cyclohexyl]-1-methyl-ethyl]-47,48-dimethoxy-45-[2-(2-methoxyethoxy)ethoxy]-36,37,38,39,49,50-hexamethyl-66,67-dioxa-58-azatricyclohexatriaconta-23,25,27(49),28(50)-tetraene-51,52,53,54,55-pentone] | ≥ 1000 | 1 to 10 | Yes
5 | CO[C@@H]1/C(C)=C/[C@@H](C)C(=O)C[C@@H]([C@H](C)C[C@@H]2CC[C@@H](OC)[C@H](OC)C2)OC(=O)[C@@H]2CCCCN2C(=O)C(=O)[C@]2(O)O[C@@H](CC[C@H]2C)C[C@@H](OCC2COCCO2)/C(C)=C/C=C/C=C/[C@@H](C)C[C@@H](C)C(=O)[C@@H]1OC (stereo partly drawn) [I-39, (26E,28E,30E,31E,34R,35S,36R,37R,39S,41S,43R,44S,46R,47R,56R)-44-[(1R)-2-[(1S,3R,4R)-3,4-dimethoxycyclohexyl]-1-methyl-ethyl]-43-(1,4-dioxan-2-ylmethoxy)-56-hydroxy-46,47-dimethoxy-34,35,36,37,48,49-hexamethyl-66,67-dioxa-57-azatricyclohexatriaconta-26,28,30(48),31(49)-tetraene-50,51,52,53,54-pentone] | ≥ 1000 | 100 to 1000 | Yes
6 | COCCS(=O)(=O)CCO[C@@H]1C[C@@H]2CC[C@@H](C)[C@@](O)(O2)C(=O)C(=O)N2CCCC[C@H]2C(=O)O[C@H]([C@H](C)C[C@@H]2CC[C@@H](OC)[C@H](OC)C2)CC(=O)[C@H](C)/C=C(\C)[C@@H](OC)[C@@H](OC)C(=O)[C@H](C)C[C@H](C)/C=C/C=C/C=C/1C [I-42, (24E,26E,28E,29E,35R,36S,37R,38R,40S,42S,44R,45S,46R,47R,56R)-45-[(1R)-2-[(1S,3R,4R)-3,4-dimethoxycyclohexyl]-1-methyl-ethyl]-56-hydroxy-46,47-dimethoxy-44-[2-(2-methoxyethylsulfonyl)ethoxy]-35,36,37,38,48,49-hexamethyl-66,67-dioxa-57-azatricyclohexatriaconta-24,26,28(48),29(49)-tetraene-50,51,52,53,54-pentone] | ≥ 1000 | 10 to 100 | Yes
7 | CO[C@@H]1/C(C)=C/[C@@H](C)C(=O)C[C@@H]([C@H](C)C[C@@H]2CC[C@@H](OCCCO)[C@H](OC)C2)OC(=O)[C@@H]2CCCCN2C(=O)C(=O)[C@]2(O)O[C@@H](CC[C@H]2C)C[C@@H](OCCOC2COC2)/C(C)=C/C=C/C=C/[C@@H](C)C[C@@H](C)C(=O)[C@@H]1OC [I-44, (23E,25E,27E,28E,35R,36S,37R,38R,40S,42S,44R,45S,47R,48R,57R)-47,57-dihydroxy-45-[(1R)-2-[(1S,3R,4R)-4-(3-hydroxypropoxy)-3-methoxy-cyclohexyl]-1-methyl-ethyl]-48-methoxy-35,36,37,38,49,50-hexamethyl-44-[2-(oxetan-3-yloxy)ethoxy]-68,69-dioxa-58-azatricyclohexatriaconta-23,25,27(49),28(50)-tetraene-51,52,53,54,55-pentone] | ≥ 1000 | 1 to 10 | Yes
8 | COCCOCCO[C@@H]1C[C@@H]2CC[C@@H](C)[C@@](O)(O2)C(=O)C(=O)N2CCCC[C@H]2C(=O)O[C@H]([C@H](C)C[C@@H]2CC[C@@H](O)[C@H](OC)C2)CC(=O)[C@H](C)/C=C(\C)[C@@H](OC)[C@@H](OC)C(=O)[C@H](C)C[C@H](C)/C=C/C=C/C=C/1C [I-48, (23E,25E,27E,28E,34R,35S,36R,37R,39S,41S,43R,44S,45R,46R,55R)-55-hydroxy-44-[(1R)-2-[(1S,3R,4R)-4-hydroxy-3-methoxy-cyclohexyl]-1-methyl-ethyl]-45,46-dimethoxy-43-[2-(2-methoxyethoxy)ethoxy]-34,35,36,37,47,48-hexamethyl-64,65-dioxa-56-azatricyclohexatriaconta-23,25,27(47),28(48)-tetraene-49,50,51,52,53-pentone] | ≥ 1000 | 1 to 10 | Yes
9 | CO[C@@H]1/C(C)=C/[C@@H](C)C(=O)C[C@@H]([C@H](C)C[C@@H]2CC[C@@H](OC)[C@H](OC)C2)OC(=O)[C@@H]2CCCCN2C(=O)C(=O)[C@]2(O)O[C@@H](CC[C@H]2C)CC(OCCOC2COC2)/C(C)=C/C=C/C=C/[C@@H](C)C[C@@H](C)C(=O)[C@@H]1OC (stereo partly drawn) [I-50, (25E,27E,29E,30E,34R,35S,36R,37R,39S,41S,44S,46R,47R,56R)-44-[(1R)-2-[(1S,3R,4R)-3,4-dimethoxycyclohexyl]-1-methyl-ethyl]-56-hydroxy-46,47-dimethoxy-34,35,36,37,48,49-hexamethyl-43-[2-(oxetan-3-yloxy)ethoxy]-65,66-dioxa-57-azatricyclohexatriaconta-25,27,29(48),30(49)-tetraene-50,51,52,53,54-pentone] | ≥ 1000 | 1 to 10 | Yes
